Reference: patent publication US11866414B2, “Substituted heterocyclic compounds” (BRISTOL-MYERS SQUIBB COMPANY, priority 2021, dated 2024)

Key:
[1] = test system: IFNα-induced STAT phosphorylation (pSTAT5); test: IFNα-induced STAT phosphorylation in human whole blood; type: cell-based; conditions: 1 h compound, 1000 U/mL IFNα A/D 15 min, CD3 positive population, read-out: Human Whole blood IFNa pSTAT5 IC50
Procedure: IFNα-Induced STAT Phosphorylation in Human Whole Blood
After an hour long incubation with compound, human whole blood (drawn with ACD-A as anticoagulant) was stimulated with 1000 U/mL recombinant human IFNα A/D (R&D Systems 11200-2) for 15 min. The stimulation was stopped by adding Fix/Lyse buffer (BD 558049). Cells were stained with a CD3 FITC antibody (BD 555916), washed, and permeabilized on ice using Perm III buffer (BD 558050). Cells were then stained with an Alexa-Fluor 647 pSTAT5 (pY694) antibody (BD 612599) for 60 min prior to analysis on the iQue Plus. The amount of pSTAT5 expression was quantitated by median fluorescence intensity after gating on the CD3 positive population.

in vitro = conditions: human, Caco-2, pH 7.4

Row | SMILES | IC50 [1] [nM] | Papp A→B at 2 h, 3 μM (in vitro) [×10⁻⁶ cm/s] | efflux ratio at 2 h, 3 μM (in vitro)
1 | [2H]C([2H])([2H])NC(=O)c1nnc(NC(=O)[C@@H]2C[C@H]2F)cc1Nc1cccc(-c2cnn(C)n2)c1OC [Example 29, 6-((1S,2R)-2-fluorocyclopropane-1-carboxamido)-4-((2-methoxy-3-(2-methyl-2H-1,2,3-triazol-4-yl)phenyl)amino)-N-(methyl-d3)pyridazine-3-carboxamide] | 50 | 37.9 | 0.5
2 | [2H]C([2H])([2H])NC(=O)c1nnc(NC(=O)C2CC2(F)F)cc1Nc1cccc(-c2cnn(C)n2)c1OC (stereo not drawn) [Example 31, 6-(2,2-difluorocyclopropane-1-carboxamido)-4-((2-methoxy-3-(2-methyl-2H-1,2,3-triazol-4-yl)phenyl)amino)-N-(methyl-d3)pyridazine-3-carboxamide] | 110 | 31.3 | 0.8
3 | [2H]C([2H])([2H])NC(=O)c1nnc(NC(=O)C2CC2)cc1Nc1cc(C(=O)OC)cc(-c2cnn(C)n2)c1OC [Example 32, methyl 3-((6-(cyclopropanecarboxamido)-3-((methyl-d3)carbamoyl)-pyridazin-4-yl)amino)-4-methoxy-5-(2-methyl-2H-1,2,3-triazol-4-yl)benzoate] | 220 | 19.5 | 0.9
4 | [2H]C([2H])([2H])NC(=O)c1nnc(NC(=O)C2CC2)cc1Nc1ccc(C)c(-c2cnn(C)n2)c1OC [Example 33, 6-(cyclopropanecarboxamido)-4-((2-methoxy-4-methyl-3-(2-methyl-2H-1,2,3-triazol-4-yl)phenyl)amino)-N-(methyl-d3)pyridazine-3-carboxamide] | 80 | 34.5 | 0.8
5 | [2H]C([2H])([2H])NC(=O)c1nnc(NC(=O)[C@H]2C[C@H]2C)cc1Nc1nccc(-c2cnn(C)n2)c1OC [Example 40, 4-((3-methoxy-4-(2-methyl-2H-1,2,3-triazol-4-yl)pyridin-2-yl)amino)-N-(methyl-d3)-6-((1S,2R)-2-methylcyclopropane-1-carboxamido)pyridazine-3-carboxamide] | 40 | 25.9 | 0.8
6 | [2H]C([2H])([2H])NC(=O)c1nnc(NC(=O)[C@H]2C[C@@H]2C)cc1Nc1nccc(-c2cnn(C)n2)c1OC [Example 42, 4-((3-methoxy-4-(2-methyl-2H-1,2,3-triazol-4-yl)pyridin-2-yl)amino)-N-(methyl-d3)-6-((1S,2S)-2-methylcyclopropane-1-carboxamido)pyridazine-3-carboxamide] | 50 | 28.7 | 0.4
7 | [2H]C([2H])([2H])NC(=O)c1nnc(NC(=O)[C@@H]2C[C@H]2CC)cc1Nc1nccc(-c2cnn(C)n2)c1OC [Example 43, 6-((1R,2R)-2-ethylcyclopropane-1-carboxamido)-4-((3-methoxy-4-(2-methyl-2H-1,2,3-triazol-4-yl)pyridin-2-yl)amino)-N-(methyl-d3)pyridazine-3-carboxamide] | 280 | 13.4 | 0.6
8 | [2H]C([2H])([2H])NC(=O)c1nnc(NC(=O)CCCF)cc1Nc1nccc(-c2cnn(C)n2)c1OC [Example 45, 6-(4-fluorobutanamido)-4-{[3-methoxy-4-(2-methyl-2H-1,2,3-triazol-4-yl)pyridin-2-yl]amino}-N—(^2H3)methylpyridazine-3-carboxamide] | 60 | 5.8 | 0.5
9 | [2H]C([2H])([2H])NC(=O)c1nnc(NC(=O)C2CC2)cc1Nc1nc(C)cc(-c2cnn(C)n2)c1OC [Example 46, 6-(cyclopropanecarboxamido)-4-((3-methoxy-6-methyl-4-(2-methyl-2H-1,2,3-triazol-4-yl)pyridin-2-yl)amino)-N-(methyl-d3)pyridazine-3-carboxamide] | 10 | 38.1 | 0.4

The remaining compounds from weak to strong by IC50 [1], led by results:

Row | IC50 [1] [nM] | Papp A→B at 2 h, 3 μM (in vitro) [×10⁻⁶ cm/s] | efflux ratio at 2 h, 3 μM (in vitro) | SMILES
10 | 6800 | 30.1 | 0.3 | [2H]C([2H])([2H])NC(=O)c1nnc(NC(=O)[C@H]2C[C@@H]2C)cc1Nc1nc(C)cc(-c2cnn(C)n2)c1OC [Example 48, 4-((3-methoxy-6-methyl-4-(2-methyl-2H-1,2,3-triazol-4-yl)pyridin-2-yl)amino)-N-(methyl-d3)-6-((1S,2S)-2-methylcyclopropane-1-carboxamido)pyridazine-3-carboxamide]
11 | 440 | 33 | 0.4 | [2H]C([2H])([2H])NC(=O)c1nnc(NC(=O)C2CC2(C)C)cc1Nc1nccc(-c2cnn(C)n2)c1OC (stereo not drawn) [Example 38, 6-(2,2-dimethylcyclopropane-1-carboxamido)-4-((3-methoxy-4-(2-methyl-2H-1,2,3-triazol-4-yl)pyridin-2-yl)amino)-N-(methyl-d3)pyridazine-3-carboxamide]
12 | 420 | 18.8 | 0.4 | [2H]C([2H])([2H])NC(=O)c1nnc(NC(=O)N(C)C)cc1Nc1nccc(-c2cnn(C)n2)c1OC [Example 39, 6-(3,3-dimethylureido)-4-((3-methoxy-4-(2-methyl-2H-1,2,3-triazol-4-yl)pyridin-2-yl)amino)-N-(methyl-d3)pyridazine-3-carboxamide]
13 | 370 | 28 | 0.5 | [2H]C([2H])([2H])NC(=O)c1nnc(NC(=O)OCC)cc1Nc1cccc(-c2cnn(C)n2)c1OC [Example 28, ethyl (5-((2-methoxy-3-(2-methyl-2H-1,2,3-triazol-4-yl)phenyl)amino)-6-((methyl-d3)carbamoyl)pyridazin-3-yl)carbamate]
14 | 210 | 20.5 | 0.8 | [2H]C([2H])([2H])NC(=O)c1nnc(NC(=O)C2CC2)cc1Nc1cccc(-c2nn(C3CC3)nc2C)c1OC [Example 27, 6-(cyclopropanecarboxamido)-4-((3-(2-cyclopropyl-5-methyl-2H-1,2,3-triazol-4-yl)-2-methoxyphenyl)amino)-N-(methyl-d3)pyridazine-3-carboxamide]
15 | 160 | 20.9 | 0.3 | [2H]C([2H])([2H])NC(=O)c1nnc(NC(=O)C2CC2)cc1Nc1cc(C(=O)OC(C)C)cc(-c2cnn(C)n2)c1OC [Example 34, isopropyl 3-((6-(cyclopropanecarboxamido)-3-((methyl-d3)carbamoyl)pyridazin-4-yl)amino)-4-methoxy-5-(2-methyl-2H-1,2,3-triazol-4-yl)benzoate]
16 | 110 | 34 | 0.3 | [2H]C([2H])([2H])NC(=O)c1nnc(NC(=O)[C@@H]2C[C@H]2C)cc1Nc1nc(C)cc(-c2cnn(C)n2)c1OC [Example 47, 4-((3-methoxy-6-methyl-4-(2-methyl-2H-1,2,3-triazol-4-yl)pyridin-2-yl)amino)-N-(methyl-d3)-6-((1R,2R)-2-methylcyclopropane-1-carboxamido)pyridazine-3-carboxamide]
17 | 60 | 1.9 | 1.2 | [2H]C([2H])([2H])NC(=O)c1nnc(Nc2ccn(C)n2)cc1Nc1cccc(-c2cnn(C)n2)c1OC [Example 25, 4-((2-methoxy-3-(2-methyl-2H-1,2,3-triazol-4-yl)phenyl)amino)-N-(methyl-d3)-6-((1-methyl-1H-pyrazol-3-yl)amino)pyridazine-3-carboxamide]
18 | 60 | 33.4 | 0.6 | [2H]C([2H])([2H])NC(=O)c1nnc(NC(=O)[C@@H]2C[C@@H]2C)cc1Nc1cccc(-c2cnn(C)n2)c1OC [Example 26, 4-((2-methoxy-3-(2-methyl-2H-1,2,3-triazol-4-yl)phenyl)amino)-N-(methyl-d3)-6-((1R,2S)-2-methylcyclopropane-1-carboxamido)pyridazine-3-carboxamide]
19 | 60 | 29.9 | 0.7 | [2H]C([2H])([2H])NC(=O)c1nnc(NC(=O)[C@H]2C[C@H]2C)cc1Nc1cccc(-c2cnn(C)n2)c1OC [Example 30, 4-((2-methoxy-3-(2-methyl-2H-1,2,3-triazol-4-yl)phenyl)amino)-N-(methyl-d3)-6-((1S,2R)-2-methylcyclopropane-1-carboxamido)-pyridazine-3-carboxamide]
20 | 40 | 24.6 | 0.5 | [2H]C([2H])([2H])NC(=O)c1nnc(NC(=O)[C@@H]2C[C@@H]2F)cc1Nc1nccc(-c2cnn(C3CC3)n2)c1OC [Example 44, 4-((4-(2-cyclopropyl-2H-1,2,3-triazol-4-yl)-3-methoxypyridin-2-yl)amino)-6-((1S,2S)-2-fluorocyclopropane-1-carboxamido)-N-(methyl-d3)pyridazine-3-carboxamide]
21 | 20 | 42.9 | 0.6 | [2H]C([2H])([2H])NC(=O)c1nnc(NC(=O)C2CC2)cc1Nc1cc(COC)cc(-c2cnn(C)n2)c1OC [Example 35, 6-(Cyclopropanecarboxamido)-4-((2-methoxy-5-(methoxymethyl)-3-(2-methyl-2H-1,2,3-triazol-4-yl)phenyl)amino)-N-(methyl-d3)pyridazine-3-carboxamide]
